Here are results for nine compounds from PMC9408872, “Harmicens, Novel Harmine and Ferrocene Hybrids: Design, Synthesis and Biological Activity” (International Journal of Molecular Sciences, 2022).

The subject of one data set is HCT116 cells. Description: Cell cycle analysis (propidium iodide, flow cytometry). It counts as cell-based, human. The note with it: 3 µM and 6 µM. As for the experimental part:
To that end, the cells were treated for 24 and 48 h with 3 µM and 6 µM concentrations of each compound, which corresponded to 0.5 × IC50 and IC50 values obtained in the MTT assay after 72 h, respectively. Afterward, the DNA was stained with propidium iodide and subjected to flow cytometry analysis.
HCT116 cells were seeded onto 6-well plates (2 × 10^5 cells per well). After 24 h, the tested compounds 28 and 36 were added at two concentrations—3 µM and 6 µM. After 24 h and 48 h, the attached cells were trypsinized, combined with floating cells, washed with phosphate buffer saline (PBS), fixed with 70% ethanol, and stored at −20 °C. Immediately before analysis, the cells were washed two times with PBS, treated with 0.1 μg/μL of RNAse A, and stained for 1 h on ice with 50 μg/mL of propidium iodide. The stained cells were then analyzed using a BD FACScalibur flow cytometer (20,000 counts were measured). The percentage of cells in each cell cycle phase was determined using FlowJo software (TreeStar Inc., San Francisco, CA, USA). The tests were performed in duplicate and repeated in two separate experiments. The average values from duplicates from one representative experiment ± SD are presented.

The test system of data set [1] is HCT116 (colorectal carcinoma). Nature of the data set: MTT cytotoxicity assay, HCT116. It counts as cell-based, human. The note with it: for IC50: 72 h, MTT, mean ± SD, read-out: IC50 HCT116; for SI (HCT116): selectivity index: ratio of IC50 Hek293T to IC50 HCT116. As to the method: (§1) The parent compound harmine, as well as the reference drug 5-fluorouracil, were used as positive controls.
(§2) The experiments were carried out on five human cell lines purchased from American Type Culture Collection (ATCC): HepG2 (hepatocellular carcinoma; ATCC® HB-8065™), SW620 (colorectal adenocarcinoma; ATCC® CCL-227™), HCT116 (colorectal carcinoma; ATCC® CCL-247™), MCF-7 (breast adenocarcinoma; ATCC® HTB-22™), and Hek293T (embryonic kidney cells; ATCC® CRL-3216™). All cell lines were cultured as monolayers and maintained in Dulbecco’s Modified Eagle Medium (DMEM) (Capricorn Scientific, Ebsdorfergrund, Germany) supplemented with 10% fetal bovine serum (FBS) (Capricorn Scientific, Ebsdorfergrund, Germany), 100 U/mL penicillin, and 100 µg/mL streptomycin (Capricorn Scientific, Ebsdorfergrund, Germany) in a humidified atmosphere with 5% CO2 at 37 °C. Cells were seeded in 96-well plates (Corning, Durham, NC, USA) at 5000–7000 cells per well (depending on the cell-doubling time of a specific cell line) in 0.1 mL media and cultured for 24 h. The next day, the medium was aspirated, and cells were treated for 72 h. Only the compounds that led to more than a 50% reduction in mitochondrial metabolic activity at a concentration of 50 µM were selected for further analysis. The following concentrations of selected compounds were used: 25, 10, 5, and 1 µM. Working dilutions were freshly prepared on the day of the testing. A fresh growth medium was added to untreated control cells, which were defined as 100% viable. DMSO (0.13%) in DMEM was considered a negative control. 5-Fluorouracil (5-FU) and harmine were used as positive controls. At the end of treatment, the medium was removed, and cells were incubated for 1 h with 0.5 mg/mL MTT (Abcam, Cambridge, MA, USA) dissolved in serum-deprived DMEM. The MTT-containing medium was then removed, and 0.1 mL isopropanol was added per well to lyse cells and dissolve formazan. The optical density was measured at 570 nm using a microplate reader (VICTOR3, PerkinElmer, Waltham, MA, USA). Each test point was performed in triplicate. The absorbance was directly proportional to the cell viability. The IC50 values (concentration required to decrease viability by 50%) were calculated by using nonlinear regression on the sigmoidal dose–response plots and are expressed as mean ± SD.

Data set [2] has as its system MCF-7 (breast adenocarcinoma). Description: cells. The settings on record: for IC50: read-out: IC50 MCF-7, 72 h, MTT, mean ± SD; for SI (MCF-7): selectivity index: ratio of IC50 Hek293T to IC50 MCF-7. As for the experimental part: as §1, §2
For data set [3], the system named is SW620 (colorectal adenocarcinoma). Description: MTT cytotoxicity assay, SW620. It counts as cell-based, human. The settings on record: 72 h, MTT; mean ± SD; read-out: IC50 SW620. As to the method: as §1, §2
For data set [4], the system named is HepG2 (hepatocellular carcinoma). Nature of the data set: MTT cytotoxicity assay, HepG2. Format: cell-based, human. The settings on record: 72 h, MTT; mean ± SD; read-out: IC50 HepG2. As for the experimental part: as §1, §2
For data set [5], the system named is Hek293T (embryonic kidney cells). Description: MTT cytotoxicity assay, Hek293T. The note with it: noncancer cell line; 72 h, MTT; mean ± SD; read-out: IC50 Hek293T. Format: cell-based, human. As for the experimental part:
as §1, §2

Data set [6] concerns P. falciparum 3D7 (CQ-sensitive) erythrocytic stages. Description: In vitro drug sensitivity assay (HRP2-ELISA) against erythrocytic stages, Pf3D7. Format: cell-based. The note with it: for IC50: read-out: IC50 Pf3D7. As to the method:
(§3) The in vitro activity of harmicens 20–37 against the erythrocytic stages of CQ-sensitive (Pf3D7) and multidrug-resistant (PfDd2) P. falciparum strains was evaluated following a previously described method (Table 1).
(§4) The antiplasmodial activity of harmicens 20–37 was evaluated against two strains of P. falciparum (3D7—CQ-sensitive, Dd2—multidrug-resistant) as previously described using the histidine-rich protein 2 (HRP2) assay. Briefly, 96-well plates were pre-coated with the tested compounds in a three-fold dilution before ring-stage parasites were added to complete the culture medium at a hematocrit of 1.5% and parasitemia of 0.05%. After three days of incubation at 37 °C, 5% CO2, and 5% oxygen, plates were frozen until HRP2-ELISA analysis. All compounds were evaluated in duplicate in at least two independent experiments. The IC50 was determined using a nonlinear regression analysis of log concentration–response curves using the drc-package v0.9.0 of R v2.6.1 (R Foundation, Vienna, Austria).

The subject of data set [7] is P. falciparum Dd2 (multidrug-resistant) erythrocytic stages. Nature of the data set: In vitro drug sensitivity assay (HRP2-ELISA) against erythrocytic stages, PfDd2. Format: cell-based. The note with it: multidrug-resistant strain; three days incubation; mean ± SD; read-out: IC50 PfDd2. As for the experimental part: as §3, §4
The mark [8] stands for this setting: CQ-sensitive strain, three days incubation, mean ± SD.

For the compound `Cc1nccc2c1[nH]c1cc(OCc3cn(C[c-]4cccc4)nn3)ccc12.[Fe+2].c1cc[cH-]c1` [Compound 28, 7-((1-(Ferrocenylmethyl)-1H-1,2,3-triazol-4-yl)methoxy)-1-methyl-9H-pyrido[3,4-b]indole], the “effect on cell cycle distribution after 24 h” value in the data set on HCT116 cells is listed as “statistically significant increase in cells in the G1 phase at both tested concentrations”. Moreover, the “effect on cell cycle distribution after 48 h” value in the data set on HCT116 cells (48 h) is reported as “pronounced G2/M cell cycle arrest”. In addition, the 50% inhibitory concentration (IC50) in data set [1] was 7.4 ± 0.4 µM; in data set [2], more than 50 µM; in data set [3], more than 50 µM; in data set [4], more than 50 µM; in data set [5], more than 50 µM; in data set [6] (setting [8]), more than 56 µM. In addition, the IC50 in data set [7] is more than 56 µM. The “SI (HCT116)” value in data set [1] is more than 6.8. Further, the “SI (MCF-7)” value in data set [2] is on record as more than 1. The “decrease in antiplasmodial activity against Pf3D7 relative to harmicene 23” value in data set [6] (28 (methylene bridge) versus its counterpart 23) turned out to be 370 fold. Further, the “IC50 Pf3D7” value in data set [6] (setting [8]) was “inactive at the highest concentration tested”.

Regarding `O=C(NCc1nccc2c1[nH]c1ccccc12)[c-]1cccc1.[Fe+2].c1cc[cH-]c1` [Compound 30, N-((9H-Pyrido[3,4-b]indol-1-yl)methyl)ferrocenecarboxamide], the IC50 is 16.8 ± 0.9 µM in data set [1]; 8.5 ± 1.5 µM in data set [2]; 45.1 ± 3.7 µM in data set [3]; more than 50 µM in data set [4]; more than 50 µM in data set [5]; more than 56 µM in data set [6] (setting [8]). For the same compound, in data set [7], the IC50 was found to be 14 ± 1.95 µM. Moreover, in data set [1], the “SI (HCT116)” value is reported as more than 3. For the same compound, the “activity against MCF-7 relative to 5-FU (fold stronger)” value in data set [2] is 3–6.5 fold. Besides, the “SI (MCF-7)” value in data set [2] is listed as more than 5.9.

As to `Cc1nc(CNC(=O)[c-]2cccc2)cc2c1[nH]c1ccccc12.[Fe+2].c1cc[cH-]c1` [Compound 31, N-((1-Methyl-9H-pyrido[3,4-b]indol-3-yl)methyl)ferrocenecarboxamide], the IC50 was more than 50 µM in data set [1]; 19.9 ± 1.1 µM in data set [2]; more than 50 µM in data set [3]; more than 50 µM in data set [4]; more than 50 µM in data set [5]; 13.2 ± 8.54 µM in data set [6] (setting [8]). In addition, in data set [7], the concentration for half-maximal inhibition (IC50) is 8.03 ± 0.19 µM. Also, the “SI (HCT116)” value in data set [1] is more than 1. Further, the “SI (MCF-7)” value in data set [2] is listed as more than 2.51.

With `Cc1nccc2c1[nH]c1cc(OCCNC(=O)[c-]3cccc3)ccc12.[Fe+2].c1cc[cH-]c1` [Compound 32, N-(2-((1-Methyl-9H-pyrido[3,4-b]indol-7-yl)oxy)ethyl)ferrocenecarboxamide], the half-maximal inhibitory concentration (IC50) came out at 6.6 ± 0.8 µM in data set [1]; 9.1 ± 1.4 µM in data set [2]; 9.9 ± 4 µM in data set [3]; 15.6 ± 0.3 µM in data set [4]; 18.6 ± 0.2 µM in data set [5]; 0.3 ± 0.09 µM in data set [6] (setting [8]). For the same compound, in data set [7], the IC50 is 0.66 ± 0.01 µM. In addition, the “SI (HCT116)” value in data set [1] is 2.8. Moreover, in data set [2], the “SI (MCF-7)” value was found to be 2.

In the case of `COc1ccc2c3ccnc(C)c3n(CCNC(=O)[c-]3cccc3)c2c1.[Fe+2].c1cc[cH-]c1` [Compound 33, N-(2-(7-Methoxy-1-methyl-9H-pyrido[3,4-b]indol-9-yl)ethyl)ferrocenecarboxamide], the concentration for half-maximal inhibition (IC50) was 16.3 ± 3.2 µM in data set [1]; 30.5 ± 13.2 µM in data set [2]; more than 50 µM in data set [3]; more than 50 µM in data set [4]; more than 50 µM in data set [5]; 0.4 ± 0.18 µM in data set [6] (setting [8]). In data set [7], the IC50 is 2.04 ± 0.29 µM. The “SI (MCF-7)” value in data set [2] is more than 1.7.

In the case of `O=C(C[c-]1cccc1)NCc1nccc2c1[nH]c1ccccc12.[Fe+2].c1cc[cH-]c1` [Compound 34, N-((9H-Pyrido[3,4-b]indol-1-yl)methyl)-2-ferrocenylacetamide], the 50% inhibitory concentration (IC50) was more than 50 µM in data set [1]; more than 50 µM in data set [2]; more than 50 µM in data set [3]; more than 50 µM in data set [4]; more than 50 µM in data set [5]; 1.34 ± 0.09 µM in data set [6] (setting [8]). In data set [7], the IC50 amounted to 1.11 ± 0.01 µM. Besides, the “SI (HCT116)” value in data set [1] is on record as more than 1. Further, the “SI (MCF-7)” value in data set [2] is recorded as more than 1.

For the compound `Cc1nc(CNC(=O)C[c-]2cccc2)cc2c1[nH]c1ccccc12.[Fe+2].c1cc[cH-]c1` [Compound 35, N-((1-Methyl-9H-pyrido[3,4-b]indol-3-yl)methyl)-2-ferrocenylacetamide], the IC50 was 20.9 ± 1.5 µM in data set [1]; 36.9 ± 6.8 µM in data set [2]; 25 ± 8.1 µM in data set [3]; more than 50 µM in data set [4]; more than 50 µM in data set [5]; 7.85 ± 2.18 µM in data set [6] (setting [8]). The IC50 in data set [7] was 13 ± 5.9 µM. Moreover, the “SI (HCT116)” value in data set [1] is more than 2.4. Moreover, in data set [2], the “SI (MCF-7)” value is reported as more than 1.4.

As to `Cc1nccc2c1[nH]c1cc(OCCNC(=O)C[c-]3cccc3)ccc12.[Fe+2].c1cc[cH-]c1` [Compound 36, N-(2-((1-Methyl-9H-pyrido[3,4-b]indol-7-yl)oxy)ethyl)-2-ferrocenylacetamide], the “effect on cell cycle distribution after 24 h” value with HCT116 cells was “G1 phase arrest only at a higher concentration”. Further, the concentration for half-maximal inhibition (IC50) worked out at 5.9 ± 1.3 µM in data set [1]; 4.5 ± 0.3 µM in data set [2]; 4.2 ± 0.3 µM in data set [3]; 7.4 ± 0.5 µM in data set [4]; 8.4 ± 0.3 µM in data set [5]; 0.42 ± 0.02 µM in data set [6] (setting [8]). Further, in data set [7], the IC50 was 1.53 ± 0.06 µM. Also, in data set [1], the “SI (HCT116)” value was 1.4. Moreover, in data set [2], the “SI (MCF-7)” value was determined as 1.9.

`COc1ccc2c3ccnc(C)c3n(CCNC(=O)C[c-]3cccc3)c2c1.[Fe+2].c1cc[cH-]c1` [Compound 37, N-(2-(7-Methoxy-1-methyl-9H-pyrido[3,4-b]indol-9-yl)ethyl)-2-ferrocenylacetamide]: the IC50 came to 7.5 ± 0.4 µM in data set [1]; 13.2 ± 0.5 µM in data set [2]; 9.9 ± 1.1 µM in data set [3]; 28 ± 2.5 µM in data set [4]; 30.8 ± 2.4 µM in data set [5]; 0.83 ± 0.23 µM in data set [6] (setting [8]). Further, the concentration for half-maximal inhibition (IC50) in data set [7] was 1.8 ± 0.35 µM. For the same compound, the “SI (HCT116)” value in data set [1] came to 4.1. Moreover, the “SI (MCF-7)” value in data set [2] was 2.3.
